# Test results taken from patent publication US8747537B2, “Ink containing heterocyclic azo dye, and dye for use in said ink” (Mitsubishi Chemical Corporation, priority 2010, dated 2014).
# Key:
# [1] = Solubility test in low-polarity solvents (saturated solution, λmax, solubility, εC); type: physicochemical; settings: for Solubility: saturated solution
# Description: The solubility of each dye in n-decane, tetradecane, Isopar M, Isopar G, and decalin was examined in the following manner. Each dye was added to each solvent until a dissolution residue came to remain, and this mixture was subjected to a 30-minute ultrasonic treatment at 30 degrees. The resultant mixture was allowed to stand at 5° C. for 24 hours and then subjected to centrifugal filtration (centrifugal force, 5,200×g) with a 0.1-μm filter using a microcentrifuge. The saturated solution obtained was diluted to an adequate concentration, and the solubility of each dye was calculated from a relationship with an extinction coefficient determined beforehand. Furthermore, the value of the product of the molar extinction coefficient ε (Lmol^−1cm^−1) and the concentration C (molL^−1) of the saturated solution, εC, was determined.
# Sudan Black B (manufactured by Tokyo Kasei Kogyo Co., Ltd.), which is a commercial oil-soluble black dye, was added to n-decane until a dissolution residue came to remain, and this mixture was subjected to a 30-minute ultrasonic treatment at 30 degrees. The resultant mixture was allowed to stand at 5° C. for 24 hours and then subjected to centrifugal filtration (centrifugal force, 5,200×g) with a 0.1-μm filter using a microcentrifuge. The saturated n-decane solution obtained was diluted to an adequate concentration, and the solubility of the dye was calculated from a relationship with an extinction coefficient determined beforehand.
# [2] = Light fastness test (retention of dye after 2 hours of high-pressure mercury lamp irradiation); type: physicochemical; settings: 1 mg in 250 mL, 2 hours irradiation
# Description: The light fastness of each dye was examined in the following manner. One milligram of each dye was dissolved in 250 mL of each of n-decane, tetradecane, Isopar M, and Isopar G, and the solution was irradiated with light for 2 hours using photoreaction apparatus UVL-400HA (400-W high-pressure mercury lamp), manufactured by Riko-Kagaku Sangyo Co., Ltd. During the irradiation, the vessel was cooled with a coolant to keep the internal temperature at 10-30° C. The retention of the dye was determined through the following calculation to evaluate the light fastness. Retention of dye=(absorbance at absorption-maximum wavelength after irradiation)/(absorbance at absorption-maximum wavelength before irradiation)
# [3] = n-decane, stood at 5° C. for 24 hours, 0.1-μm filter
# [4] = n-decane, 400-W high-pressure mercury lamp
SMILES,εC ([1]; Isopar G) [cm⁻¹],λmax (absorption-maximum wavelength) ([1]; Isopar G solution) [nm],Solubility ([1]; Isopar G) [%],εC ([1]; Isopar M) [cm⁻¹],λmax (absorption-maximum wavelength) ([1]; Isopar M solution) [nm],Solubility ([1]; Isopar M) [%],εC ([1]; decalin) [cm⁻¹],λmax (absorption-maximum wavelength) ([1]; decalin solution) [nm],Solubility ([1]; decalin) [%],εC (molar extinction coefficient × concentration of saturated solution) ([1]; n-decane) [cm⁻¹],λmax (absorption-maximum wavelength) ([1]; n-decane solution) [nm],"Solubility [1, 3] [%]",εC ([1]; tetradecane) [cm⁻¹],λmax (absorption-maximum wavelength) ([1]; tetradecane solution) [nm],Solubility ([1]; tetradecane) [%],Light fastness: retention of dye ([2]; Isopar G) [%],Light fastness: retention of dye ([2]; Isopar M) [%],"Light fastness: retention of dye [2, 4] [%]",Light fastness: retention of dye ([2]; tetradecane) [%],also measured
"CCCCC(CC)CNc1ccc(NCC(CC)CCCC)c2c1C(=O)c1ccccc1C2=O (centres unmarked) [Comparative dye 2, reference compound]",1200,649,4.3,1000,650,3.6,3400,645,9.98,2000,652,6.6,1600,651,5.7,85,90,92,99,εC (in words) ([1]; each of the low-polarity solvents): small value; λmax (in words) ([1]; low-polarity solvents): large value
CCCCC(CC)CN(CC(CC)CCCC)c1ccc(N=Nc2snc(C)c2C#N)c(NC(C)=O)c1 (centres unmarked) [Dye 2],5000,542,5.7,4000,544,4.32,24000,547,24.5,6600,543,7.9,4900,545,5.4,100,100,97,94,
CCCCC(CC)CN(CC(CC)CCCC)c1ccc(/N=N/c2sc(C(=O)OCC)c(C)c2C(=O)OCC)c(NC(=O)CC)c1 (centres unmarked) [Dye 7],6000,535,10,6300,536,10,,,,5700,536,10.3,5400,538,9.7,98,87,98,81,
CCCCC(CC)CN(CC(CC)CCCC)c1ccc(N=Nc2sc(C(=O)OCC)c(C)c2C(=O)OCC)c(NC(C)=O)c1 (centres unmarked) [Dye 3],,,,,,,,,,1300,537,2.4,,,,,,92,,

# The next lines start with results.
εC ([1]; Isopar G) [cm⁻¹],λmax (absorption-maximum wavelength) ([1]; Isopar G solution) [nm],Solubility ([1]; Isopar G) [%],εC ([1]; Isopar M) [cm⁻¹],λmax (absorption-maximum wavelength) ([1]; Isopar M solution) [nm],Solubility ([1]; Isopar M) [%],εC ([1]; decalin) [cm⁻¹],λmax (absorption-maximum wavelength) ([1]; decalin solution) [nm],Solubility ([1]; decalin) [%],εC (molar extinction coefficient × concentration of saturated solution) ([1]; n-decane) [cm⁻¹],λmax (absorption-maximum wavelength) ([1]; n-decane solution) [nm],"Solubility [1, 3] [%]",εC ([1]; tetradecane) [cm⁻¹],λmax (absorption-maximum wavelength) ([1]; tetradecane solution) [nm],Solubility ([1]; tetradecane) [%],Light fastness: retention of dye ([2]; Isopar G) [%],Light fastness: retention of dye ([2]; Isopar M) [%],"Light fastness: retention of dye [2, 4] [%]",Light fastness: retention of dye ([2]; tetradecane) [%],SMILES,also measured
,,,,,,,,,1000,538,1.1,,,,,,97,,CCc1nsc(N=Nc2ccc(N(CC(C)C)CC(C)C)cc2NC(C)=O)c1C#N [Dye 1],
18600,542,20,18600,542,20,6600,546,6.7,17000,543,20,16700,544,19,,,99,,CCCCC(CC)CN(CC(CC)CCCC)c1ccc(N=Nc2snc(CC)c2C#N)c(NC(C)=O)c1 (centres unmarked) [Dye 10],
